US6849653B2, “Substituted pyrazolyl benzenesulfamide compounds for the treatment of inflammation” (Pharmacia Corporation, priority 2001, dated 2005)
Read-outs that look alike come from different tables or passages of the source.

Target: T1, rhIKK1/IKK2 heterodimer (Homo sapiens, UniProt O14920+O15111)
T1 construct: made in house; host or cells: insect cells (baculovirus coinfection; SF9)
T1 sequence (O14920 1-756): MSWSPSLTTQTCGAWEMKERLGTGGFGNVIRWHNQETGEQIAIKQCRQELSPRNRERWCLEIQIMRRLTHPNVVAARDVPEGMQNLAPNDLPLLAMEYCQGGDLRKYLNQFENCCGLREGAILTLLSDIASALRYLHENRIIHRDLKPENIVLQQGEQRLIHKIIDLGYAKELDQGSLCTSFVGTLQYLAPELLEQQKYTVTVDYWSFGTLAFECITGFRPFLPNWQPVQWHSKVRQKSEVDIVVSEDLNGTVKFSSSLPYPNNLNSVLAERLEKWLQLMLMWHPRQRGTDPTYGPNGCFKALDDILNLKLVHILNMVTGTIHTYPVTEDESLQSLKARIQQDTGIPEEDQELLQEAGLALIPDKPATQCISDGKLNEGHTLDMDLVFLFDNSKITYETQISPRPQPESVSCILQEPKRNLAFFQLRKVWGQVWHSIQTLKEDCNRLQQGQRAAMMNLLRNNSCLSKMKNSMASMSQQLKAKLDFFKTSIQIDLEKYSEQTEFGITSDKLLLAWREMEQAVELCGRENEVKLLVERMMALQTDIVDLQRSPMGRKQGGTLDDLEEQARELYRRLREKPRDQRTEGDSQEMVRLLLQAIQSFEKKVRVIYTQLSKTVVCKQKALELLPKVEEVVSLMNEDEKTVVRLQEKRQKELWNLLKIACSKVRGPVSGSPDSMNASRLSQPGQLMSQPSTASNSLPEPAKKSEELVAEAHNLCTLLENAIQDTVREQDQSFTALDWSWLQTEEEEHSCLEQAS
T1 sequence (O15111 1-745): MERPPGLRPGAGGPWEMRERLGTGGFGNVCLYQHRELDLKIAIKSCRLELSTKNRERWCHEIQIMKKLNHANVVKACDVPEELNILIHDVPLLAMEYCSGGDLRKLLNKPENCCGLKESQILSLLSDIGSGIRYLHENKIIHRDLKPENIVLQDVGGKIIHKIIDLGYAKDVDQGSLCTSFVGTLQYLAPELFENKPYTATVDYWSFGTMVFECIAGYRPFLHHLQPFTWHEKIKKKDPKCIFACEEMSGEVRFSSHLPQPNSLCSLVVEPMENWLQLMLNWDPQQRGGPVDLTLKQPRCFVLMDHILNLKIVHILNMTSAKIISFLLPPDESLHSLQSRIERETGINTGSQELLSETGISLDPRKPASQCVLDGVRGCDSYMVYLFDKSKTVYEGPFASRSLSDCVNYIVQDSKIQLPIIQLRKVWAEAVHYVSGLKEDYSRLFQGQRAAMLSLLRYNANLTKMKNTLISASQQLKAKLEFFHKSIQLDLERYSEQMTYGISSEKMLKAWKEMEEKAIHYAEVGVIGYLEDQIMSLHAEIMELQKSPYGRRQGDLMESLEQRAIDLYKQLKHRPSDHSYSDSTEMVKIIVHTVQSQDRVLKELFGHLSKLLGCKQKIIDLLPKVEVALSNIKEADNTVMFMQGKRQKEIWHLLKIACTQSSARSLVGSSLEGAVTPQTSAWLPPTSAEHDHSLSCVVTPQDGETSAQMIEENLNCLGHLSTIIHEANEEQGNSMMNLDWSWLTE
Experiment: IKK Heterodimer Resin Enzyme Assay
Type: biochemical
From the text: cDNAs of human IKK1 and IKK2 were amplified by reverse transcriptase-polymerase chain reaction from human placental RNA (Clonetech). hIKK1 was subcloned into pFastBac HTa (Life Technologies) and expressed as N-terminal His6-tagged fusion protein. The hIKK2 cDNA was amplified using a reverse oligonucleotide primer which incorporated the peptide sequence for a FLAG-epitope tag at the C-terminus of the IKK2 coding region ([…]). The hIKK2:FLAG cDNA was subcloned into the baculovirus vector pFastBac. The rhIKK2 ([…]) mutant was constructed in the same vector used for wild type rhIKK2 using a QuikChange™ mutagenesis kit (Stratagene). Viral stocks of each construct were used to infect insect cells grown in 40L suspension culture. […] Cell lysates were stored at −80° C. until purification of the recombinant proteins was undertaken as described below.
Isolation of rhIKK1/IKK2 Heterodimer
The heterodimer enzyme was produced by coinfection in a baculovirus system (FLAG IKK2/IKK1 His; MOI=0.1 and I=72 hrs). Infected cells were centrifuged and the cell pellet (10.0 g) was suspended in 50 ml of buffer A. The protein suspension was microfluidized and centrifuged at 100,000×g for 45 min. Imidazole was added to the supernatant to a final concentration of 10 mM. The protein was allowed to bind 25 ml of Ni-NTA resin by mixing for 2 hrs. The protein-resin slurry was poured into a 25 ml column and washed with 250 ml of buffer A containing 10 mM imidazole followed by 125 ml of buffer A containing 50 mM imidazole. Buffer A, containing 300 mM imidazole, was then used to elute the protein. A 75 ml pool was collected and NP-40 was added to a final concentration of 0.1%. […] The protein-resin slurry was then centrifuged for 5 min at 2,000 rpm. The supernatant was collected and the resin re-suspended in 100 ml of buffer C containing 0.1% NP-40. The resin was washed with 375 ml of buffer C containing 0.1% NP-40. The protein-resin was poured into a 25 ml column and the enzyme eluted using buffer B containing FLAG peptide. Enzyme fractions (100 ml) were collected and concentrated to 20 ml using an Amicon membrane with molecular weight cut-off of 30 kDa. Bovine serum albumin was added to the concentrated enzyme to final concentration of 0.1%. The enzyme was then aliquoted and stored at −80° C.
IKK Heterodimer Resin Enzyme Assay
Resin was allowed to settle for one hour and 50 ul of supernatant was removed to a Micolite-2 flat bottom plate (Dynex). 150 μl of scintillation fluid (Microscint 40) (Packard) was added to each well. Incorporation of [γ-^33P] ATP was measured using a Top-Count NXT (Packard).

[1] = Table 1, values given as bins, read-out: HetD (IKK heterodimer assay values expressed as IC50)

| Compound | IC50 [1] | IC50 |
| --- | --- | --- |
| CC(=O)Nc1ccc2ccc3c(C(N)=O)nn(-c4ccc(S(N)(=O)=O)cc4)c3c2c1 [Example 20, 8-(acetylamino)-1-[4-(aminosulfonyl)phenyl]-1H-benzo[g]indazole-3-carboxamide] | ≤ 1000 nM |  |
| CS(=O)(=O)Nc1ccc2ccc3c(C(N)=O)nn(-c4ccc(S(N)(=O)=O)cc4)c3c2c1 [Example 21, 1-[4-(aminosulfonyl)phenyl]-8-[(methylsulfonyl)amino]-1H-benzo[g]indazole-3-carboxamide] | ≤ 1000 nM |  |
| NC(=O)c1nn(-c2ccc(S(N)(=O)=O)cc2)c2c1ccc1ccc(NS(=O)(=O)c3ccc(Cl)c(Cl)c3)cc12 [Example 22, 1-[4-(aminosulfonyl)phenyl]-8-{[(3,4-dichlorophenyl)sulfonyl]amino}-1H-benzo[g]indazole-3-carboxamide] | 1000 to 10000 nM |  |
| NC(=O)c1nn(-c2ccc(S(N)(=O)=O)cc2)c2c1ccc1ccc(NS(=O)(=O)c3cc(Cl)c(Cl)cc3Cl)cc12 [Example 23, 1-[4-(aminosulfonyl)phenyl]-8-{[(2,4,5-trichlorophenyl)sulfonyl]amino}-1H-benzo[g]indazole-3-carboxamide] | 1000 to 10000 nM |  |
| NC(=O)c1nn(-c2ccc(S(N)(=O)=O)cc2)c2c1ccc1ccc(NS(=O)(=O)c3cc(C(F)(F)F)cc(C(F)(F)F)c3)cc12 [Example 24, 1-[4-(aminosulfonyl)phenyl]-8-({[3,5-bis(trifluoromethyl)phenyl]sulfonyl}amino)-1H-benzo[g]indazole-3-carboxamide] | 1000 to 10000 nM |  |
| COc1ccccc1C(=O)Nc1ccc2ccc3c(C(N)=O)nn(-c4ccc(S(N)(=O)=O)cc4)c3c2c1 [Example 25, 1-[4-(aminosulfonyl)phenyl]-8-[(2-methoxybenzoyl)amino]-1H-benzo[g]indazole-3-carboxamide] |  | 1000 to 10000 nM |
| NC(=O)c1nn(-c2ccc(S(N)(=O)=O)cc2)c2c1ccc1ccc(NC(=O)c3ccccc3C(F)(F)F)cc12 [Example 26, 1-[4-(aminosulfonyl)phenyl]-8-{[2-(trifluoromethyl)benzoyl]amino}-1H-benzo[g]indazole-3-carboxamide] | ≤ 1000 nM |  |
| Cc1ccccc1C(=O)Nc1ccc2ccc3c(C(N)=O)nn(-c4ccc(S(N)(=O)=O)cc4)c3c2c1 [Example 27, 1-[4-(aminosulfonyl)phenyl]-8-[(2-methylbenzoyl)amino]-1H-benzo[g]indazole-3-carboxamide] | ≤ 1000 nM |  |
| NC(=O)c1nn(-c2ccc(S(N)(=O)=O)cc2)c2c1ccc1ccc(NC(=O)c3c(Cl)cccc3Cl)cc12 [Example 28, 1-[4-(aminosulfonyl)phenyl]-8-[(2,6-dichlorobenzoyl)amino]-1H-benzo[g]indazole-3-carboxamide] | ≤ 1000 nM |  |
| NC(=O)c1nn(-c2ccc(S(N)(=O)=O)cc2)c2c1ccc1ccc(NC(=O)c3ccccc3OC(F)(F)F)cc12 [Example 29] | ≤ 1000 nM |  |
| NC(=O)c1nn(-c2ccc(S(N)(=O)=O)cc2)c2c1ccc1ccc(NC(=O)c3cccc(Cl)c3Cl)cc12 [Example 30, 1-[4-(aminosulfonyl)phenyl]-8-[(2,3-dichlorobenzoyl)amino]-1H-benzo[g]indazole-3-carboxamide] | ≤ 1000 nM |  |
| NC(=O)c1nn(-c2ccc(S(N)(=O)=O)cc2)c2c1ccc1ccc(NC(=O)c3ccccc3F)cc12 [Example 31, 1-[4-(aminosulfonyl)phenyl]-8-[(2-fluorobenzoyl)amino]-1H-benzo[g]indazole-3-carboxamide] | ≤ 1000 nM |  |
| NC(=O)c1nn(-c2ccc(S(N)(=O)=O)cc2)c2c1ccc1ccc(NC(=O)c3cccnc3Cl)cc12 [Example 32, 1-[4-(aminosulfonyl)phenyl]-8-{[(2-chloropyridin-3-yl)carbonyl]amino}-1H-benzo[g]indazole-3-carboxamide] | ≤ 1000 nM |  |
| NC(=O)c1nn(-c2ccc(S(N)(=O)=O)cc2)c2c1ccc1ccc(NS(=O)(=O)c3ccccc3Cl)cc12 [Example 33, 1-[4-(aminosulfonyl)phenyl]-8-{[(2-chlorophenyl)sufonyl]amino}-1H-benzo[g]indazole-3-carboxamide] | 1000 to 10000 nM |  |
| NC(=O)c1nn(-c2ccc(S(N)(=O)=O)cc2)c2c1ccc1ccc(NC(=O)c3ccncc3)cc12 [Example 34, 1-[4-(aminosulfonyl)phenyl]-8-(isonicotinoylamino)-1H-benzo[g]indazole-3-carboxamide] | ≤ 1000 nM |  |
